Experimental data from US8871934B2, “Fluorene compound and pharmaceutical use thereof” (Japan Tobacco Inc., priority 2008, dated 2014).
pIC50: −log10 of the molar value. Like-named read-outs stand apart in the source and are kept apart here.

Target: human PDHK2 (hPDHK2) (Homo sapiens (Human), UniProt Q15119)
Experiment: Inhibitory action of PDHK activity in vitro (kinase reaction, residual PDH activity measured)
Type: biochemical
[1] = PDHK inhibitory activity, class symbol of IC50
[2] = read-out: PDHK inhibitory activity IC50
[3] = class symbol of IC50, read-out: PDHK inhibitory activity
[4] = read-out: PDHK inhibitory activity (class symbol)
[5] = PDHK inhibitory activity (class symbol)

| SMILES | pIC50 [2] | pIC50 [5] | further results |
| --- | --- | --- | --- |
| Cc1cc(-c2cnn(CCO)c2)cc2c1-c1ccccc1C2(O)C(F)(F)F (centres unmarked) [compound 584] | 7.11 | – | pIC50 [1]: > 7.00 |
| CC(=O)c1cc(-c2cnn(CCO)c2)cc2c1-c1ccccc1C2(O)C(F)(F)F (centres unmarked) [compound 585] | 7.59 | – | pIC50 [1]: > 7.00 |
| CC(O)c1cc(-c2cnn(CCO)c2)cc2c1-c1ccccc1C2(O)C(F)(F)F (centres unmarked) [compound 586] | 6.29 | – | pIC50 [1]: 6.00 to 7.00 |
| CCn1cc(-c2cc(C(C)=O)c3c(c2)C(O)(C(F)(F)F)c2ccccc2-3)cn1 (centres unmarked) [compound 587] | 7.68 | – | pIC50 [1]: > 7.00 |
| OCCn1cc(-c2ccc3c(c2)C(O)(C(F)(F)F)c2cccc(CO)c2-3)cn1 (centres unmarked) [compound 590] | 5.23 | – | pIC50 [1]: < 6.00 |
| Cn1cc(-c2cc(C(C)(C)O)c3c(c2)C(O)(C(F)(F)F)c2ccccc2-3)cn1 (centres unmarked) [compound 591] | < 6.00 | – | pIC50 [3]: < 6.00 |
| CC(C)(O)c1cc(-c2cnn(CCO)c2)cc2c1-c1ccccc1C2(O)C(F)(F)F (centres unmarked) [compound 592] | < 6.00 | – | pIC50 [3]: < 6.00 |
| CC(C)n1cc(-c2ccc3c(c2)C(O)(C(F)(F)F)c2cccc(CO)c2-3)cn1 (centres unmarked) [compound 593] | < 6.00 | – | pIC50 [3]: < 6.00 |
| CC(=O)c1cc(-c2cnn(CCC(=O)O)c2)cc2c1-c1ccccc1C2(O)C(F)(F)F (centres unmarked) [compound 594] | 7.32 | – | pIC50 [1]: > 7.00 |
| CC(=O)c1cc(-c2cnn(C)c2)cc2c1-c1ccccc1C2(O)C(F)(F)F (centres unmarked) [compound 596] | 7.39 | – | pIC50 [1]: > 7.00 |
| CCn1cc(-c2ccc3c(c2)C(O)(C(F)(F)F)c2cccc(CO)c2-3)cn1 (centres unmarked) [compound 597] | < 6.00 | – | pIC50 [3]: < 6.00 |
| CC(O)c1cc(-c2cnn(C)c2)cc2c1-c1ccccc1C2(O)C(F)(F)F (centres unmarked) [compound 598] | 6.19 | – | pIC50 [1]: 6.00 to 7.00 |
| CC(=O)c1cc(OCCN2CCCC2=O)cc2c1-c1ccccc1C2(O)C(F)(F)F (centres unmarked) [compound 599] | 7.48 | – | pIC50 [1]: > 7.00 |
| O=C(O)CCn1cc(-c2ccc3c(c2)C(O)(C(F)(F)F)c2cccc(CO)c2-3)cn1 (centres unmarked) [compound 600] | < 6.00 | – | pIC50 [3]: < 6.00 |
| NC(=O)CCn1cc(-c2ccc3c(c2)C(O)(C(F)(F)F)c2cccc(CO)c2-3)cn1 (centres unmarked) [compound 601] | < 6.00 | – | pIC50 [4]: < 6.00 |
| CC(C)(C)n1cc(-c2ccc3c(c2)C(O)(C(F)(F)F)c2cccc(CO)c2-3)cn1 (centres unmarked) [compound 602] | < 6.00 | – | pIC50 [4]: < 6.00 |
| Cn1cc(-c2cc(C#CCO)c3c(c2)C(O)(C(F)(F)F)c2ccccc2-3)cn1 (centres unmarked) [compound 603] | 6.64 | 6.00 to 7.00 | – |
| O=C(O)Cn1cc(-c2ccc3c(c2)C(O)(C(F)(F)F)c2cccc(CO)c2-3)cn1 (centres unmarked) [compound 608] | < 6.00 | – | pIC50 [4]: < 6.00 |
| NC(=O)Cn1cc(-c2ccc3c(c2)C(O)(C(F)(F)F)c2cccc(CO)c2-3)cn1 (centres unmarked) [compound 609] | < 6.00 | – | pIC50 [4]: < 6.00 |
| OCCCCOc1cc(CO)c2c(c1)C(O)(C(F)(F)F)c1ccccc1-2 (centres unmarked) [compound 611] | 6.48 | 6.00 to 7.00 | – |
| NC(=O)c1cc(OCCN2CCCOC2=O)cc2c1-c1ccccc1C2(O)C(F)(F)F (centres unmarked) [compound 612] | 7.33 | > 7.00 | – |
| O=C(O)CCCOc1cc(-c2cnco2)c2c(c1)C(O)(C(F)(F)F)c1ccccc1-2 (centres unmarked) [compound 613] | 7.12 | > 7.00 | – |

| SMILES | pIC50 [2] | pIC50 [5] | further results |
| --- | --- | --- | --- |
| OCCn1cc(-c2cc(CO)c3c(c2)C(O)(C(F)(F)F)c2ccccc2-3)cn1 (centres unmarked) [compound 615] | 6.98 | 6.00 to 7.00 | – |
| COC(=O)c1cc(Cl)cc2c1-c1ccccc1C2(O)C(F)(F)F (centres unmarked) [compound 616] | 6.72 | 6.00 to 7.00 | – |
| CCn1cc(-c2cc(CO)c3c(c2)C(O)(C(F)(F)F)c2ccccc2-3)cn1 (centres unmarked) [compound 618] | 7.25 | > 7.00 | – |
| OCCn1cc(-c2cc(CO)cc3c2-c2ccccc2C3(O)C(F)(F)F)cn1 (centres unmarked) [compound 620] | 7.19 | > 7.00 | – |
| CC(C)n1cc(-c2cc(CO)c3c(c2)C(O)(C(F)(F)F)c2ccccc2-3)cn1 (centres unmarked) [compound 621] | 7.19 | > 7.00 | – |
| Cn1cc(-c2cc(OCC(CO)CO)cc3c2-c2ccccc2C3(O)C(F)(F)F)cn1 (centres unmarked) [compound 622] | 7.48 | > 7.00 | – |
| O=C(O)CCCn1cc(-c2cc(CO)cc3c2-c2ccccc2C3(O)C(F)(F)F)cn1 (centres unmarked) [compound 623] | 6.88 | 6.00 to 7.00 | – |
| N#CCc1cc(Cl)cc2c1-c1ccccc1C2(O)C(F)(F)F (centres unmarked) [compound 625] | < 6.00 | – | pIC50 [4]: < 6.00 |
| COc1cc(C(N)=O)c2c(c1)C(O)(C(F)(F)F)c1ccccc1-2 (centres unmarked) [compound 626] | 6.17 | 6.00 to 7.00 | – |
| COc1cc(CO)c2c(c1)C(O)(C(F)(F)F)c1ccccc1-2 (centres unmarked) [compound 627] | < 6.00 | – | pIC50 [4]: < 6.00 |
| Cn1cc(-c2cc(OC(CO)CO)cc3c2-c2ccccc2C3(O)C(F)(F)F)cn1 (centres unmarked) [compound 628] | 7.24 | > 7.00 | – |
| CC(C)Cc1cc(-c2cnn(CCO)c2)c2c(c1)C(O)(C(F)(F)F)c1ccccc1-2 (centres unmarked) [compound 631] | 7.21 | > 7.00 | – |
| C#Cc1cc(C(N)=O)c2c(c1)C(O)(C(F)(F)F)c1ccccc1-2 (centres unmarked) [compound 632] | 6.71 | 6.00 to 7.00 | – |
| CCc1cc(C(N)=O)c2c(c1)C(O)(C(F)(F)F)c1ccccc1-2 (centres unmarked) [compound 633] | 6.25 | 6.00 to 7.00 | – |
| CC[Si](CC)(CC)CCc1cc(C(N)=O)c2c(c1)C(O)(C(F)(F)F)c1ccccc1-2 (centres unmarked) [compound 634] | 7.00 | 6.00 to 7.00 | – |
| OCc1cc(Cl)cc2c1-c1ccccc1C2(O)C(F)(F)F (centres unmarked) [compound 635] | 6.29 | 6.00 to 7.00 | – |
| NC(=O)c1cc(Cl)cc2c1-c1ccccc1C2(O)C(F)(F)F (centres unmarked) [compound 636] | 6.62 | 6.00 to 7.00 | – |
| Cn1cc(-c2cc(CC(N)=O)c3c(c2)C(O)(C(F)(F)F)c2ccccc2-3)cn1 (centres unmarked) [compound 637] | < 6.00 | – | pIC50 [4]: < 6.00 |
| CC(C)(C)n1cc(-c2cc(CO)c3c(c2)C(O)(C(F)(F)F)c2ccccc2-3)cn1 (centres unmarked) [compound 638] | 6.90 | 6.00 to 7.00 | – |
| CC(C)(C)n1cc(-c2cc(C(N)=O)c3c(c2)C(O)(C(F)(F)F)c2ccccc2-3)cn1 (centres unmarked) [compound 639] | 7.20 | > 7.00 | – |
| NC(=O)c1cc(OCCO)cc2c1-c1ccccc1C2(O)C(F)(F)F (centres unmarked) [compound 640] | 6.14 | 6.00 to 7.00 | – |
| C#Cc1cc(CO)c2c(c1)C(O)(C(F)(F)F)c1ccccc1-2 (centres unmarked) [compound 641] | 6.29 | 6.00 to 7.00 | – |

| SMILES | pIC50 [2] | pIC50 [5] | further results |
| --- | --- | --- | --- |
| CCc1cc(CO)c2c(c1)C(O)(C(F)(F)F)c1ccccc1-2 (centres unmarked) [compound 642] | < 6.00 | – | pIC50 [4]: < 6.00 |
| Cn1cc(-c2cc(CCO)c3c(c2)C(O)(C(F)(F)F)c2ccccc2-3)cn1 (centres unmarked) [compound 643] | 6.74 | 6.00 to 7.00 | – |
| O=C(c1cc(CO)c2c(c1)C(O)(C(F)(F)F)c1ccccc1-2)N1CC(O)C1 (centres unmarked) [compound 644] | 6.89 | 6.00 to 7.00 | – |
| CC(C)Cn1cc(-c2cc(C(N)=O)c3c(c2)C(O)(C(F)(F)F)c2ccccc2-3)cn1 (centres unmarked) [compound 645] | 7.43 | > 7.00 | – |
| CC(C)(C)Cn1cc(-c2cc(C(N)=O)c3c(c2)C(O)(C(F)(F)F)c2ccccc2-3)cn1 (centres unmarked) [compound 646] | 7.40 | > 7.00 | – |
| CC(C)Cc1cc(-c2cnn(C(CO)CO)c2)c2c(c1)C(O)(C(F)(F)F)c1ccccc1-2 (centres unmarked) [compound 648] | 7.36 | > 7.00 | – |
| CC(C)Cn1cc(-c2cc(CO)c3c(c2)C(O)(C(F)(F)F)c2ccccc2-3)cn1 (centres unmarked) [compound 649] | 7.43 | > 7.00 | – |
| CC(C)(C)Cn1cc(-c2cc(CO)c3c(c2)C(O)(C(F)(F)F)c2ccccc2-3)cn1 (centres unmarked) [compound 650] | 7.44 | > 7.00 | – |
| C/C=C/c1cc(-c2cnn(C(CO)CO)c2)c2c(c1)C(O)(C(F)(F)F)c1ccccc1-2 (centres unmarked) [compound 651] | 7.60 | > 7.00 | – |
| CCCc1cc(-c2cnn(C(CO)CO)c2)c2c(c1)C(O)(C(F)(F)F)c1ccccc1-2 (centres unmarked) [compound 652] | 7.44 | > 7.00 | – |
| CCc1cc(-c2cnn(C(CO)CO)c2)c2c(c1)C(O)(C(F)(F)F)c1ccccc1-2 (centres unmarked) [compound 653] | 7.43 | > 7.00 | – |
| CC(C)c1cc(-c2cnn(C(CO)CO)c2)c2c(c1)C(O)(C(F)(F)F)c1ccccc1-2 (centres unmarked) [compound 654] | 7.26 | > 7.00 | – |
| NC(=O)c1cc(CCCN2CCCC2=O)cc2c1-c1ccccc1C2(O)C(F)(F)F (centres unmarked) [compound 655] | 7.14 | > 7.00 | – |
| O=C1CCCN1CCCc1cc(CO)c2c(c1)C(O)(C(F)(F)F)c1ccccc1-2 (centres unmarked) [compound 656] | 6.76 | 6.00 to 7.00 | – |
| NC(=O)c1cc(-c2cncnc2)cc2c1-c1ccccc1C2(O)C(F)(F)F (centres unmarked) [compound 658] | 7.15 | > 7.00 | – |
| CC(C)(O)Cn1cc(-c2cc(CO)c3c(c2)C(O)(C(F)(F)F)c2ccccc2-3)cn1 (centres unmarked) [compound 661] | 7.23 | > 7.00 | – |
| NC(=O)c1cc(-c2cnn(CC3CCCCC3)c2)cc2c1-c1ccccc1C2(O)C(F)(F)F (centres unmarked) [compound 662] | 7.47 | > 7.00 | – |
| CC(C)(C)CCc1cc(-c2cnn(C(CO)CO)c2)c2c(c1)C(O)(C(F)(F)F)c1ccccc1-2 (centres unmarked) [compound 666] | 7.57 | > 7.00 | – |
| N#Cc1ccc2c(c1)C(O)(C(F)(F)F)c1ccccc1-2 (centres unmarked) [compound 671] | 5.84 | < 6.00 | – |
| Cc1cc(-c2cnn(C(CO)(CO)CO)c2)c2c(c1)[C@@](O)(C(F)(F)F)c1ccccc1-2 [compound 707, (+)-2-hydroxymethyl-2-[4-(9-hydroxy-2-methyl-9-trifluoromethyl-9H-fluoren-4-yl)-pyrazol-1-yl]-propane-1,3-diol] | – | > 7.00 | pIC50 (PDHK inhibitory activity IC50 (μmol/L)): 7.72 |
